Assay results: US20030044413A1, “Methods of limiting apoptosis of cells” (Regents of the University of Minnesota, priority 1998, published 2003)
“Also recorded” adds a separate entry of the source.

Assays:
[1] = system: rat primary hepatocytes; assay: Apoptosis in isolated rat hepatocytes with DCA, TGF-β1 or okadaic acid ± UDCA (Example III); assay type: cell-based; conditions: for percentage of apoptotic cells: 50 μM deoxycholic acid 4 hours, 1 nM TGF-β1 24 hours, 25 nM okadaic acid 16 hours
Text: Cell culture and preparation of rat primary hepatocytes. Rat primary hepatocytes were isolated from male Sprague-Dawley rats (200-250 g) by collagenase perfusion as described by Mariasb, et al., J. Biol. Chem. 261, 9583-9586 (1986). Briefly, rats were anesthesized with phenobarbitol and the livers were perfused with 0.05% collagenase. Hepatocyte suspensions were obtained by passing digested livers through 0.125 mm gauze and washing cells in modified Eagle's medium (MEM) (Life Technologies, Inc., Grand Island, N.Y.). Cell viability was determined by trypan blue exclusion and was typically 85 to 90%. After isolation, hepatocytes were resuspended in William's E medium (Life Technologies, Inc.) supplemented with 26 mM sodium bicarbonate, 23 mM HEPES, 0.01 U/mL insulin, 2 mM L-glutamine, 10 nM dexamethasone, 5.5 mM glucose, 100 U/ml penicillin and 100 U/ml streptomycin and then plated on 35×10 mm […] tissue culture dishes (Becton Dickinson Labware, Lincoln Park, N.J.) at 1.0×10^6 cells/ml. The cells were maintained at 37° C. in a humidified atmosphere of 5% CO2 for 3 h. Plates were then washed with medium to remove dead cells, and medium containing 10% heat-inactivated FBS (55° C. for 30 min) was added (Atlanta Biologicals, Inc., Norcross, Ga.).
Incubation of cells with inducers of apoptosis. Freshly isolated rat hepatocytes were cultured for 3 h as described above and then incubated with William's E medium supplemented with either 50 μM DCA for 4 h, 1 nM TGF-β1 for 24 h, or 25 nM okadaic acid for 16 h, in the presence or absence of 100 μM UDCA, or no addition (control). The medium was gently removed at the indicated time points and scored for nonviable cells by trypan blue dye exclusion. The attached cells were fixed for morphologic assessment of apoptotic changes. Morphological evaluation of apoptosis. The medium was gently removed at the indicated time points to prevent detachment of cells. Cells were fixed with 4% formaldehyde in PBS, pH 7.4, for 10 min at room temperature, incubated with Hoechst dye 33258 (Sigma Chemical Co., St. Louis, Mo.) at […] in PBS for 5 min, washed with PBS and mounted with PBS:glycerol (3:1, v/v). Fluorescence was visualized with a Zeiss standard fluorescence microscope (Carl Zeiss, Inc., Thornwood, N.Y.). Photographs were taken with Kodak Ektar-1000 film (Eastman Kodak Co.). Stained nuclei were scored by blind analysis and categorized according to the condensation and staining characteristics of chromatin. Normal nuclei were identified as noncondensed chromatin dispersed over the entire nucleus. […] Three fields per dish of approximately 500 nuclei were counted; mean values are expressed as the percent of apoptotic nuclei.

[2] = system: HuH-7 cells; assay: TGF-β1-induced apoptosis, Hoechst staining, HuH-7 cells; assay type: cell-based, human
Protocol: Incubation of cells with ethanol, TGF-β1, anti-Fas antibody or okadaic acid. Freshly isolated rat hepatocytes were cultured for 3 h as described above and then incubated with William's E medium supplemented with either 0.5% ethanol, 50 μM UDCA, ethanol plus UDCA, or no addition (control) for 2 h and 4 h. HuH-7 cells were incubated with Dulbecco's medium supplemented with either 1 nM TGF-β1 (R & D Systems, Minneapolis, Minn.), 100 μM UDCA, TGF-β1+UDCA, or no addition (control) for 24 h, 48 h, and 72 h. Hep G2 cells were incubated with Dulbecco's medium supplemented with either 0.5 μg/ml of anti-Fas antibody CH-11 (Upstate Biotechnology, Inc., Lake Placid, N.Y.), 100 μM UDCA, CH-11+UDCA, or no addition for 48 h. Both HuH-7 cells and human osteogenic sarcoma Saos-2 cells were cultured in Dulbecco's medium supplemented with either 50 nM okadaic acid (Boehringer Mannheim Biochemicals, Inc, Indianapolis, Ind.), 100 μM UDCA, okadaic acid+UDCA, or no addition for 48 h. In all the combination groups, cells were pretreated with UDCA alone for 60 min prior to addition of ethanol, TGF-β1, anti-Fas antibody or okadaic acid.
HuH-7 cells were treated with 1 nM TGF-β1, 100 μM of either hyodeoxycholic acid, taurocholic acid, tauroursodeoxycholic acid (Sigma Chemical Co.) or glycoursodeoxycholic acid (Steraloids Inc., Wilton, N.H.), or a combination of TGF-β1 plus the individual bile acids for 72 h. HeLa and Cos-7 cells were incubated with 50 nM okadaic acid, 100 μM of either tauroursodeoxycholic acid or glycoursodeoxycholic acid, or a combination of okadaic acid plus the individual bile acids for 24 h. In the combination groups, cells were pretreated with the bile acid alone for 60 min prior to incuation with TGF-β1 or okadaic acid. In all studies, the medium was gently removed at the indicated times and scored for nonviable cells. The attached cells were fixed for morphologic evaluation of apoptosis.
Morphological evaluation of apoptosis. […] Fluorescence was visualized with a Zeiss standard fluorescence microscope (Carl Zeiss, Inc., Thornwood, N.Y.). Photographs were taken with Kodak Ektar-1000 film (Eastman Kodak Co.). Stained nuclei were scored by blind analysis and categorized according to the condensation and staining characteristics of chromatin. Normal nuclei were identified as noncondensed chromatin dispersed over the entire nucleus. Apoptotic nuclei were identified by condensed chromatin, contiguous to the nuclear membrane, as well as nuclear fragmentation of condensed chromatin. Three fields per dish of approximately 500 nuclei were counted; mean values are expressed as the percent of apoptotic nuclei.

[3] = system: cytochrome c; assay: Cytochrome c release from isolated mitochondria after MPT; design: species or system rat; conditions: substance alone on isolated mitochondria
Protocol: Mitochondria isolation. […] In short, animals were sacrificed by exsanguination under ether anesthesia and the livers removed and rinsed in normal saline. Approximately 10 g of minced liver was homogenized at a speed of 800 rpm using 6 complete up and down strokes with a speed controlled mechanical skill drill and a teflon pestle (Tri-R Model K41, Tri-R Instruments, Rockville Center, N.Y.) in an ice-cold solution of 70 mM sucrose, 220 mM mannitol, 1 mM EGTA and 10 mM HEPES, pH 7.4 as a 10% (wt/vol) homogenate. The homogenate was centrifuged at 600×g for 10 min at 4° C. in an SS-34 rotor in a Sorvall RC5C centrifuge (Sorvall Instruments, Newtown, Conn.), and the postnuclear supernatant was centrifuged at 7,000×g for 10 min at 4° C. […] The pellet was resuspended in 2 mL of homogenate buffer, and 1 mL of the resuspended pellet was carefully layered onto a 35-mL self-generating gradient containing 0.25 M sucrose, 1 mM EGTA and percoll (Pharmacia Fine Chemicals, Piscataway, N.J.) (75:25, vol/vol). The mitochondria were purified by centrifugation at 43,000×g for 30 min at 4° C. using a Beckman Ti60 rotor and a Beckman ultracentrifuge model L8-55 (Beckman Instruments, Inc., Schaumburg, Ill.). The clear supernatant solution removed and the lower turbid layer was resuspended in 30 mL of wash buffer containing 0.1 M KCl, 5 mM 3-(N-morpholino)-propane sulfonic acid (MOPS), and 1 mM EGTA, at pH 7.4 and centrifuged at 7,000×g for 10 min at 4° C. The resulting mitochondria pellet was washed in wash buffer two times. A final wash was carried out in chelex-100-treated buffer (Bio-Rad Laboratories, Richmond, Va.; 200-400 mesh, potassium form) without EGTA. The pellet was suspended in 4 mL of chelex-100-treated resuspension buffer containing 125 mM sucrose, 50 mM KCl, 5 mM HEPES, and 2 mM KH2PO4. The usual yield of mitochondria was approximately 25 mg of protein per gram of liver tissue. Mitochondria were used for experiments within 3 h of isolation. Aliquots were removed for examining the purity of the mitochondria preparation.
Measurement of MPT and determination of cytochrome c content in supernatants and mitochondrial pellets after MPT. The MPT was assessed using a spectrophotometric assay measuring high amplitude rapid changes in mitochondria volume. Mitochondria (1 mg protein) were incubated in 1 ml of chelex-100-treated respiration buffer (0.1 M NaCl, 10 mM MOPS, pH 7.4) for 10 min at 25° C. and swelling was monitored at 540 nm in a Beckman DU 64 spectrophotometer. […] Basal values of mitochondria absorbance were measured for 5 min, and the optical density was monitored for an additional 5 min after addition 200 μM DCA or 80 μM phenylarsine oxide (PhAsO; Sigma Chemical Co.). […]

[4] = 1 nM TGF-β1, 100 μM bile acid, 72 h

C[C@H](CCC(=O)O)[C@H]1CC[C@H]2[C@@H]3CC[C@@H]4C[C@H](O)CC[C@]4(C)[C@H]3C[C@H](O)[C@]12C [DCA, deoxycholic acid]
percentage of apoptotic cells [1]: 7%

C[C@H](CCC(=O)O)[C@H]1CC[C@H]2[C@@H]3[C@@H](O)C[C@@H]4C[C@H](O)CC[C@]4(C)[C@H]3CC[C@]12C [UDCA, ursodeoxycholic acid]
decrease of TGF-β1 apoptosis ([2]; 1 nM TGF-β1, 100 μM bile acid, 24 h): approximately 49% | decrease of TGF-β1 apoptosis ([2]; 1 nM TGF-β1, 100 μM bile acid, 48 h): ~44% | decrease of TGF-β1 apoptosis [2, 4]: ~45% | Inhibition % Apoptosis ([2]; inducer TGF-β1, HuH-7, inhibition by UDCA): 44.2 ± 11.2% | inhibition at 100 µM ([1]; Rattus norvegicus, Hepatocyte, 100 μM UDCA with each of the apoptosis-inducing agents): > 80%

C[C@H](CCC(=O)O)[C@H]1CC[C@H]2[C@@H]3C[C@H](O)[C@@H]4C[C@H](O)CC[C@]4(C)[C@H]3CC[C@]12C [hyodeoxycholic acid]
inhibition of TGF-β1-induced apoptosis [2, 4]: did not; also recorded: neither hyodeoxycholic acid nor taurocholic acid showed inhibition

C=C1[C@@H](O)[C@@H]2O[C@]3(CC[C@H](/C=C/[C@@H](C)[C@@H]4CC(C)=C[C@@]5(O[C@H](C[C@@](C)(O)C(=O)O)CC[C@H]5O)O4)O3)CC[C@H]2O[C@@H]1[C@@H](O)C[C@H](C)[C@H]1O[C@@]2(CCCCO2)CC[C@H]1C [okadaic acid]
percentage of apoptotic cells [1]: 75% | translocation of cytochrome c to the supernatants [3]: nor did they cause translocation of cytochrome c

TGF-β1: transforming growth factor β1, nonmembrane damaging inducer of apoptosis
induction of apoptosis ([2]; 1 nM TGF-β1): significant apoptosis | percentage of apoptotic cells [1]: 30% | translocation of cytochrome c to the supernatants [3]: nor did they cause translocation of cytochrome c
